Experimental data taken from patent publication US20030229114A1, “Pyrroloquinoline quinone drugs as a neuroprotectant and methods of use thereof” (priority 2002, published 2003).
Values joined by “and” are separate entries in the source; they are usually repeats but may differ in a detail not shown here. Identical values can stand only once. “Also recorded” adds a separate entry of the source. Like-named read-outs stand apart in the source and are kept apart here.

Columns and labels:
[1] = test system: cultured rat forebrain neurons; assay: Assay of intracellular ATP in neuronal cultures (firefly luciferase); assay type: cell-based
Method: (§1) Medium was not subsequently changed.
Experiments were carried out exclusively in EBSS. […] PQQ was directly dissolved in EBSS.
The Bioluminescent Somatic Cell Assay kit from Sigma (catalog No. FL-ASC) was used for assay of ATP as previously described (Rosenberg et al., 2000). At selected time points after addition of drug or vehicle, medium was removed, and then replaced with 200 μl of cell lysis agent. After brief agitation, the medium was transferred to microcentrifuge tubes that contained 200 μl of water. The tubes were placed on wet ice until assay. ATP assay mix was used at 25-fold dilution, and 100 μl of the extract was assayed.

[2] = Assay of H2O2 produced by the reaction of SIN-1 with SOD or PQQ; assay type: biochemical; conditions: data not shown
Method: The method described by Yakes and Van Houten (1997) was used, exploiting the oxidation of o-diansidine dihydrochloride (o-DD, Sigma D-3252) in the presence of horseradish peroxidase (Sigma P-8250). Briefly, SIN-1 (1 mM) was incubated with SOD (100 units/ml) or PQQ (100 μM) in the absence or presence of catalase (100 units/ml) in EBSS for various times. Then o-DD was added to a final concentration of 250 μM and 2.5 units/ml horseradish peroxidase were added. After 1 hr incubation at 37° C., the absorbance at 470 nm was measured. The concentration of H2O2 in samples was calculated based on a standard curve obtained by the reaction of various concentrations of H2O2 with o-DD and horseradish peroxidase.

[3] = test system: cultured rat forebrain neurons; assay: Measurement of intracellular cGMP in neuronal cultures (enzyme-linked immunoassay); assay type: cell-based
Method: as §1
Intracellular cGMP was assayed by enzyme-linked immunoassay (Amersham). Cultures were washed three times, and then medium was replaced by EBSS with or without PQQ or SOD. The non-specific phosphodiesterase inhibitor, 3-isobutyl-1-methylxanthine (IBMX) at 100 μM was present in all conditions. DEA/NO, SIN-1 and peroxynitrite were added for 5 min, and then the medium was replaced with 200 μl of releasing reagent provided in the kit. The plates were agitated for 20 min at room temperature, and 20 μl of acetylation reagent was added. After 5 min, 50 μl samples were taken for assay.

BSA = assay: Western blot of BSA tyrosine nitration, cell-free (anti-nitrotyrosine antibody); assay type: biochemical, bovine; conditions: 1 hr
Method: BSA (0.5 mg/ml) in EBSS with or without PQQ was exposed to SIN-1 or peroxynitrite for 1 hr, and then 4× sample buffer (40% glycerol, 20% β-mercaptoethanol, 0.004% bromophenol blue, 6.4% SDS, 25% 1M Tris-HCl, pH 6.8) was added. After the samples were heated for 5 min, 2 μg protein per lane was subjected to SDS-PAGE analysis, followed by transfer to PVDF membrane (NEN Life Science, Boston, Mass.) and reacted with a mouse anti-nitrotyrosine monoclonal antibody (Upstate Biotechnology). Proteins were visualized with horseradish peroxidase-conjugated sheep anti-mouse immunoglobulin G (IgG) followed by detection with enhanced chemiluminescence.

[4] = test system: cultured rat forebrain neurons; assay: Survival assay of neuronal cultures (Alamar Blue reduction, 24 hr); conditions: for EC50: Rattus norvegicus, Neuron, read-out: EC50 of the protective effect against SIN-1 toxicity, SIN-1 1 mM
Method: Neuronal cultures were prepared from embryonic day 16 Sprague Dawley rat fetuses using methods similar to those previously described (Dichter, 1978) but modified to produce cultures that contained <1% astrocytes (Rosenberg and Aizenman, 1989; Rosenberg, 1991; Rosenberg et al., 1992; Wang et al., 1998). Cultures were initially plated on poly-L-lysine-coated 24-well plastic plates (Costar, Cambridge, Mass.) using an 80:10:10 (v/v) mixture ofDMEM (Life Technologies 11960-010), Ham's F-12 (Sigma, N-4888), heat-inactivated iron-supplemented calf serum (Hyclone A2151), containing 2 mM glutamine, 25 mM HEPES, 24 U/ml penicillin, and 24 μg/ml streptomycin and maintained in a 5% CO2 (balance air) incubator at 36° C. Cell proliferation was inhibited by exposure to 5 μM cytosine arabinoside at 24 hr in vitro for 72 hr. On the fourth day of culture, the medium was completely removed and replaced with 90% MEM, 10% Nuserum IV (Collaborative Research), 2 mM glutamine, 5 mM HEPES, containing 50 units/ml superoxide dismutase (Boehringer Mannheim, Indianapolis, Ind.), 20 units/ml catalase (Sigma CV-40), total glucose 11 mM, and total sodium bicarbonate 9.3 mM, plus 2% B27 supplement (Life Technologies 17504-036). Medium was not subsequently changed. To prevent evaporation of water, culture dishes were kept in wet dishes containing filter paper that was always kept wet.
In all experiments, 24-well plates were first washed three times in Hank's balanced salt solution (HBSS) containing 0.1% bovine serum albumin (BSA), and then they were placed in Earle's balanced salt solution (EBSS, which is composed of 116 mM NaCl, 5.4 mM KCl, 1.8 mM CaCl2, 0.8 mM MgSO4, 26 mM NaHCO3, 1 mM NaH2PO4 and 5.5 mM D-glucose). Experiments were carried out exclusively in EBSS. […] PQQ was directly dissolved in EBSS.
Survival of cells was determined after 24 hr exposure to the test compounds by assessing the ability of cultures to reduce Alamar Blue (Trek Diagnostic Systems, Inc., Westlake, Ohio) as an index of viability (McGahon et al., 1995). Details of this procedure have been provided elsewhere (Back et al., 1998, 1999). In brief, the test medium was removed after 24 hr, and then replaced with EBSS plus a 1:100 dilution of Alamar Blue. After 2 hr exposure, the medium was diluted 50-fold with water, and the fluorescence intensity was determined in a Hitachi fluorescence spectrophotometer using an excitation wavelength of 530 nm and an emission wavelength of 590 nm. The photomultiplier voltage was set at 700 V. In some experiments, the cell viability determined by Alamar Blue was compared to that determined by the assay of lactate dehydrogenase (LDH) release (Koh and Choi, 1987).

[5] = ESR, in vitro; Urakami et al (1997); read-out: IC50 in scavenging superoxide; cited from earlier work
[6] = ONOO− 100 μM in the presence of PQQ 100 μM

Structure (SMILES): O=C(O)c1cc(C(=O)O)c2c(n1)C(=O)C(=O)c1cc(C(=O)O)[nH]c1-2 [PQQ, Pyrroloquinoline quinone]
- Effect on ATP depletion caused by nitric oxide donors ([1]; PQQ 100 μM, DEA/NO, DPT/NO 1 mM): did not block; also recorded: no effect
- Effect on ATP depletion caused by ONOO− ([1]; PQQ 100 μM, ONOO− 100 μM): no effect
- Effect on ATP depletion induced by SIN-1 ([1]; PQQ 100 μM, SIN-1 1 mM, 1 hr): significantly blocked
- Intracellular ATP ([1]; of control values, 1 hr ONOO− 100 μM with PQQ 100 μM): 42±5.4% and 43.8±4.7%
- Intracellular ATP ([1]; of control values, 1 hr SIN-1 1 mM with PQQ 100 μM): 84.4±13.9% and 93±12.6%
- Intracellular ATP ([1]; one hour, DEA/NO 1 mM in the presence of PQQ 100 μM): 42.9±19.6%
- Intracellular ATP ([1]; one hour, DPT/NO 1 mM in the presence of PQQ 100 μM): 72.7±7.9%
- Effect on oxidation of o-diansidine by H2O2 [2]: did not reduce
- Intracellular cGMP content ([3]; DEA/NO 10 μM in the presence of PQQ 100 μM): 255±38 % of control
- Intracellular cGMP content [3, 6]: 142.5±16.2 % of control
- Effect on cGMP levels in the presence of DEA/NO ([3]; PQQ 100 μM, DEA/NO 10 μM): did not significantly alter
- Effect on cGMP accumulation induced by SIN-1 ([3]; PQQ 100 μM, SIN-1 100 μM): potentiated; also recorded: enhanced
- Intracellular cGMP content ([3]; SIN-1 100 μM in the presence of PQQ 100 μM): 267±19.5 % of control and 313.5±45 % of control
- Effect on BSA nitration caused by ONOO− (BSA; ONOO− 100 μM, PQQ 100-500 μM): potentiated; also recorded: increased
- Effect on BSA nitration caused by SIN-1 (BSA; SIN-1 1 mM, PQQ 100 μM, 300 μM or 500 μM): completely blocked
- Effect on neurotoxicity induced by NMDA plus DETA/NO ([4]; 24 hr exposure, PQQ 100 μM): fully blocked; also recorded: block
- Neuronal survival ([4]; DEA/NO 1 mM in the presence of PQQ 100 μM): 39.7±16.8 % of control
- Neuronal survival ([4]; DETA/NO 1 mM in the presence of PQQ 100 μM): 30.7±7.7 % of control
- Neuronal survival ([4]; DPT/NO 1 mM in the presence of PQQ 100 μM): 1.7±0.7 % of control
- Cell (neuronal) survival [4, 6]: 11±6% and 11±8%
- Effect on neurotoxicity caused by nitric oxide donors ([4]; PQQ 100 μM, DEA/NO, DPT/NO, DETA/NO 1 mM): nor did it prevent cell death; also recorded: no protective effect
- Effect on neurotoxicity induced by ONOO− (peroxynitrite) ([4]; PQQ 100 μM, ONOO− 100 μM): potentiated; also recorded: significantly potentiates
- Effect on neurotoxicity induced by SIN-1 ([4]; PQQ 100 μM, SIN-1 1 mM, no catalase): completely protected; also recorded: completely blocks
- EC50 ([4]; representative experiment FIG. 2B): 22.6 µM
- EC50 ([4]; three experiments): 15 ± 8.4 µM
- Effect on neurotoxicity induced by NMDA plus DETA/NO ([4]; four hour exposure, PQQ 100 μM, NMDA 20 μM, DETA/NO 300 μM): completely blocked; also recorded: blocks
- IC50 [5]: 0.038 µM
